According to patent US20230149419A1, “COMPOSITION FOR PREVENTING OR TREATING NEUROINFLAMMATORY DISEASES, COMPRISING CHLORPROMAZINE” (GliaCellTech Inc., priority 2020, published 2023):

Columns and labels:
[1] = test system: primary microglia from Psen2^N141I/+ mice with Alzheimer's disease; test: LPS-induced inflammatory cytokine secretion in primary microglia (ELISA), Psen2 mutation; type: cell-based, mouse
Protocol: (§1) Primary microglia were obtained from wild-type mice and Psen2^N141I/+ mice with Alzheimer's disease. Specifically, brains were excised from neonatal mice 1 to 3 days old and cells were obtained therefrom. The cells were cultured in Dulbecco's modified Eagle's medium (DMEM, Corning) supplemented with 10% heat-inactivated fetal bovine serum (HI-FBS, Hyclone) and 1% penicillin-streptomycin (Hyclone). Primary microglia were isolated in vitro by tapping after 12 days of culturing. Purity of primary microglia was estimated by immunostaining with an antibody against Iba-1, which is a microglial marker.
(§2) In this regard, the primary microglia were preincubated with or without 0.5 μM chlorpromazine for 30 min before LPS treatment. Anti-inflammatory effects were compared and analyzed between the test groups.

[2] = test system: primary microglia from wild-type mice; test: LPS-induced cytokine mRNA expression in primary microglia (qRT-PCR), wild-type; type: cell-based, mouse
Protocol: as §1, §2
The culture of each group was measured for microglial mRNA expression levels of the target cytokines by qRT-PCR (quantitative RT-PCR). Specifically, RNA was isolated from the microglia and cDNA was synthesized using an ImProm-II Reverse Transcriptase kit (Promega). PCR primers were commercially available (Cosmo Genetech). qRT-PCR was performed using Taq Polymerase (Invitrogen) and mouse cDNA-specific primers listed in Table 6, below. In addition, TOPreal™ qPCR 2×PreMIX (SYBR Green with low ROX) (Enzynomics) was used. Amplification (50 cycles) was performed for 50 cycles with all primers in a CFX96 Real-Time System (Bio-Rad). Actb was used as the reference genes for normalization.

[3] = test system: primary microglia from wild-type mice; test: IL-1β secretion after LPS and inflammasome activation (nigericin/ATP), wild-type microglia; type: cell-based, mouse; conditions: chlorpromazine 0.5 μM 30 min, LPS 1 μg/mL 3 h
Protocol: as §1
(§3) IL-1β is a cytokine released from an activated inflammasome complex in microglia. For secretion of the cytokine, additional treatment with a drug for inducing activation of the inflammasome complex is necessary following LPS-induced inflammation. […] Application of the test groups thus obtained could divide groups 5 to 8 of Example 5-2 into 10 subgroups according to treatment with nigericin and ATP.

[4] = test system: primary microglia from Psen2 mutation mouse model of Alzheimer's disease; test: IL-1β secretion after LPS and inflammasome activation (nigericin/ATP), Psen2 mutation microglia; type: cell-based; conditions: for IL-1β secreted: chlorpromazine 30 min, LPS 1 μg/mL 3 h
Protocol: as §1, §3

[5] = test system: primary microglia from wild-type (WT) mice; test: fAβ42-induced cytokine secretion in primary microglia (ELISA), wild-type; type: cell-based, mouse; conditions: 4 μM fAβ42, 0.5 μM chlorpromazine (Group 24)
Protocol: as §1
(§4) Specifically, FITC-conjugated amyloid beta 1-42 was prepared according to the follow reference (Cho, M.-H. et al. “Autophagy in microglia degrades extracellular β-amyloid fibrils and regulates the NLRP3 inflammasome.” Autophagy 10, 1761-1775 (2014)).
(§5) The primary cultures of microglia prepared in Example 5-1 from the Psen2 mutation (KI/+) mouse model of Alzheimer's disease and the wild-type (WT) mice were directly treated with 4 μM of the fibrilized amyloid beta 1-42 (fAβ42), followed by incubation with or without 0.5 μM chlorpromazine.

[6] = test system: primary microglia from Psen2 mutation (KI/+) mouse model of Alzheimer's disease; test: fAβ42-induced cytokine secretion in primary microglia (ELISA), Psen2 mutation; type: cell-based
Protocol: as §1, §4, §5

[7] = test system: Nr1d1 mRNA in primary microglia from wild-type mice; test: Nr1d1 mRNA expression in primary microglia (qRT-PCR), wild-type; type: cell-based, mouse
Protocol: Effects were analyzed in the experimental group not treated with chlorpromazine on the obtained microglia and the experimental group treated with chlorpromazine at a dose of 0.5 μM.

[8] = test system: REV-ERBα protein in primary microglia from Psen2 mouse model of Alzheimer's disease; test: REV-ERBα protein expression in primary microglia (western blotting), Psen2 mutation; type: cell-based
Protocol: Effects were analyzed in the experimental group not treated with chlorpromazine on the obtained microglia and the experimental group treated with chlorpromazine at a dose of 0.5 μM. For analysis of REV-ERBα protein expression levels, western blotting was carried out. Specifically, primary microglia were lysed in a 1% Triton X-100 lysis buffer (1% Triton X-100, 250 mM sucrose, 1 mM EDTA, 1 mM phenylmethylsulfonyl fluoride, and 50 mM NaCl in 20 mM Tris-HCl, pH 7.4) with 1×protease and phosphatase inhibitors (Thermo Fisher Scientific) and 0.1 M dithiothreitol (Sigma-Aldrich). The cell lysates were separated by sodium dodecyl sulfate-polyacrylamide gel electrophoresis and transferred to polyvinylidene fluoride membranes. The membranes were incubated with the appropriate primary antibodies, and bound antibodies were detected by species-specific, horseradish peroxidase-conjugated secondary antibodies. Chemiluminescence detection was performed to analyze the protein bands of interest.

[9] = KI/+ microglia, LPS 1 μg/mL 12 h, preincubated 0.5 μM chlorpromazine 30 min (Group 8)
[10] = WT microglia, LPS 1 μg/mL 12 h, 0.5 μM chlorpromazine (Group 6)
[11] = KI/+ microglia, 4 μM fAβ42, 0.5 μM chlorpromazine (Group 26)

## CN(C)CCCN1c2ccccc2Sc2ccc(Cl)cc21 [CPZ, 3-(2-chloro-10H-phenothiazin-10-yl)-N,N-dimethyl-propan-1-amine]
[1]; [9]
  Inflammatory cytokine secreted CCL2: 734.064 pg/mL
  Inflammatory cytokine secreted CCL5: 804.394 pg/mL
  Inflammatory cytokine secreted CXCL1: 924.907 pg/mL
  Inflammatory cytokine secreted IL-6: 2724.458 pg/mL
  Inflammatory cytokine secreted TNF-α: 1532.733 pg/mL
[1]; Psen2 mutation microglia, groups 7 vs 8, chlorpromazine 0.5 μM, LPS
  production of IL-6, CXCL1, CCL2, and CCL5 (in words): decrease the production
[1]; across all the groups (WT and KI/+ microglia), chlorpromazine 0.5 μM, LPS
  production of TNF-α (in words): no impacts
[2]; [10]
  Inflammatory cytokine expression Ccl2 (mRNA): 0.907 fold
  Inflammatory cytokine expression Ccl5 (mRNA): 1.113 fold
  Inflammatory cytokine expression Cxcl1 (mRNA): 0.968 fold
  Inflammatory cytokine expression Tnf (mRNA): 1.066 fold
[2]; WT microglia, LPS 1 μg/mL 12 h, 0.5 μM chlorpromazine (Group 6), normalized to Actb
  Inflammatory cytokine expression Il-6 (mRNA): 0.947 fold
[2]; wild-type microglia, groups 5 and 6, LPS
  mRNA levels of circadian clock-controlled cytokines (in words): not affected
[3]; wild-type microglia (Group 15), Nig(+)/ATP(−), nigericin 10 μM 40 min
  IL-1β secreted: 857.639 pg/mL
[3]; wild-type microglia (Group 17), Nig(−)/ATP(+), ATP 5 mM 40 min
  IL-1β secreted: 1251.571 pg/mL
[4]; Psen2 mutation microglia (Group 20), Nig(+)/ATP(−), nigericin 10 μM 40 min
  IL-1β secreted: 946.122 pg/mL
[4]; Psen2 mutation microglia (Group 22), Nig(−)/ATP(+), ATP 5 mM 40 min
  IL-1β secreted: 1186.118 pg/mL
[4]; across all the groups (WT and Psen2 mutation microglia), LPS plus nigericin or ATP
  production of IL-1β (in words): no impacts
[5]
  Secreted inflammatory cytokine CCL2: 1062.537 pg/mL
  Secreted inflammatory cytokine CCL5: 1204.562 pg/mL
  Secreted inflammatory cytokine CXCL1: 1237.646 pg/mL
  Secreted inflammatory cytokine IL-6: 1164.200 pg/mL
  Secreted inflammatory cytokine TNF-α: 1218.952 pg/mL
[6]; [11]
  Secreted inflammatory cytokine CCL2: 1645.882 pg/mL
  Secreted inflammatory cytokine CCL5: 1818.188 pg/mL
  Secreted inflammatory cytokine CXCL1: 1528.621 pg/mL
  Secreted inflammatory cytokine IL-6: 1336.446 pg/mL
  Secreted inflammatory cytokine TNF-α: 1352.738 pg/mL
[6]; microglia from Psen2 mutation mouse model (group 26), 0.5 μM chlorpromazine
  anti-inflammatory effect after fAβ42 (in words): exhibited an anti-inflammatory effect
[6]; microglia from wild-type mice and Psen2 mutation model
  levels of TNF-α after fAβ42 (in words): no impacts
[7]; WT microglia, no LPS, 0.5 μM chlorpromazine (Group 28), mean±SEM
  Nr1d1 mRNA expression: 0.860 ± 0.040 fold
[7]; wild-type microglia, chlorpromazine 0.5 μM
  Nr1d1 mRNA expression level (in words): ineffective
[8]; KI/+ microglia, no LPS, 0.5 μM chlorpromazine (Group 30), mean±SEM
  REV-ERBα protein expression: 0.882 ± 0.032 fold
[8]; Psen2 mutation microglia, group 30, chlorpromazine 0.5 μM
  REV-ERBα protein expression level (in words): restored to the level in the wild-type group
